The experiment in a line: Inhibitory concentration against polymerization in A17 double mutant HIV-1 RT using a template primer of poly rC/dG12-18 and [3H]dGTP.
Consider `O=C(OC1COc2cc(O)ccc2C1)c1ccc(O)c(O)c1O` (stereo not drawn) [2,3,4-Trihydroxy-benzoic acid 7-hydroxy-chroman-3-yl ester], for which inhibition was half-maximal at 30.8 µM (IC50). The result for `O=C(OC1COc2ccccc2C1)c1ccc(O)c(O)c1O` (stereo not drawn) [2,3,4-Trihydroxy-benzoic acid chroman-3-yl ester] reads more than 100 µM. As for `O=C(OC1COc2cc(O)cc(O)c2C1)c1cccc(O)c1O` (stereo not drawn) [2,3-Dihydroxy-benzoic acid 5,7-dihydroxy-chroman-3-yl ester], the figure is more than 100 µM.
